In series [1] the target is T1, Gastric inhibitory polypeptide receptor (Mus musculus, UniProt Q0P543).
T1 sequence (Q0P543 whole entry): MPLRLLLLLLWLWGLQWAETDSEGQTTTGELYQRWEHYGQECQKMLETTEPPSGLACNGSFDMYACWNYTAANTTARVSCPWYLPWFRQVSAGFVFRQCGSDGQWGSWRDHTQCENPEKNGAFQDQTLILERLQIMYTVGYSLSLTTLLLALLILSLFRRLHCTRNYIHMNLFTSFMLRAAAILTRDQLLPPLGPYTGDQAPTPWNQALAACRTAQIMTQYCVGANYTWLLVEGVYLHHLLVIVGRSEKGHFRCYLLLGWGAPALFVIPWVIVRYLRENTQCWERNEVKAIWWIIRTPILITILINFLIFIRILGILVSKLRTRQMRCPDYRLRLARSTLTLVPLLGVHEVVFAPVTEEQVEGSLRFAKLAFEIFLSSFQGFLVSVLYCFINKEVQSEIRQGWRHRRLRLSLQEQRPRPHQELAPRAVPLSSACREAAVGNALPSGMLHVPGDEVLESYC
Briefly: Antagonist activity at mouse GIPR expressed in CHO-K1 cells assessed as inhibition of GIP-induced cAMP production. Type of series: cell-based.

A short description of series [2]: Toxicity in C57BL/6 mouse assessed as adverse local and systemic responses at 1500 nmol/kg, sc. The settings on record: in vivo.
Series [3] deals with Glucagon receptor (Mus musculus, UniProt Q61606). The series can be described thus: Antagonist activity at mouse GCGR expressed in CHO-K1 cells assessed as inhibition of glucogon-induced cAMP production. Type of series: functional, cell-based.
Series [4] has as its target T2, Glucagon receptor (Homo sapiens, UniProt P47871). Briefly: Antagonist activity at human GCGR expressed in HEK293 cells assessed as inhibition of glucogon-induced cAMP production relative to control. Type of series: functional, cell-based. The note with it: filed as antagonist, concentration not given here.
Series [5] can be described thus: AUC in C57BL/6 mouse at 1500 nmol/kg, sc measured upto 240 mins by LC-MS analysis. The settings on record: in vivo. Set-up: route subcutaneous, dose 1500 nmol/kg, time <=240. Type of series: ADME, organism-based.
The nature of series [6]: Cmax in C57BL/6 mouse at 1500 nmol/kg, sc measured upto 240 mins by LC-MS analysis. Type of series: ADME, organism-based. Set-up: route subcutaneous, dose 1500 nmol/kg, time <=240. The note with it: in vivo.
Series [7] deals with T2, Glucagon receptor. The series can be described thus: Antagonist activity at human GCGR expressed in HEK293 cells assessed as inhibition of glucogon-induced cAMP production. Type of series: functional, cell-based.
Series [8] concerns the target Glucagon receptor (Mus musculus) (UniProt Q61606). Briefly: Antagonist activity at mouse GCGR expressed in CHO-K1 cells assessed as inhibition of glucogon-induced cAMP production relative to control. The note with it: filed as antagonist, concentration not given here. Type of series: functional, cell-based.
For the next series, the system named is Mus musculus. Briefly: Inhibition of IUB288-induced glucose elevation in C57BL/6 mouse at 1500 nmol/kg, sc pretreated for 15 mins followed by IUB288 stimulation and measured upto 120 mins. Type of series: functional, organism-based. The note with it: time 135.0 min.
Series [9] has as its target T3, Glucagon-like peptide 1 receptor (Mus musculus, UniProt O35659).
T3 sequence (O35659 whole entry): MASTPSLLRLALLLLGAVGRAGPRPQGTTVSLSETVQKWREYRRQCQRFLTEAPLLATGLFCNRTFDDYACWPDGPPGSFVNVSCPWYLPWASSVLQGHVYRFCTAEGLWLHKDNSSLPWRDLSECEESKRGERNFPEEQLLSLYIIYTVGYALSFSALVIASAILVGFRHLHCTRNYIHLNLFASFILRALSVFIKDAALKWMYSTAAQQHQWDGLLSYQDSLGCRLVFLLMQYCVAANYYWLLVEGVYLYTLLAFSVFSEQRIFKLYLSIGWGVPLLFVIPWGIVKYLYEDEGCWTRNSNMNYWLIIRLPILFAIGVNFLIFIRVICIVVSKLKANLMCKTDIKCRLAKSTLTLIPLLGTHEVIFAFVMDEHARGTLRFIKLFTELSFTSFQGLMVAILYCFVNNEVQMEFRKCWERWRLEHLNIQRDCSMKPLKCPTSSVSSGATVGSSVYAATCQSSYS
The series can be described thus: Antagonist activity at mouse GLP1R expressed in CHO-K1 cells assessed as inhibition of GLP1-induced cAMP production. Type of series: functional, cell-based.

Series [10] in a line: Half life in C57BL/6 mouse at 1500 nmol/kg, sc measured upto 240 mins by LC-MS analysis. Type of series: ADME, organism-based. The note with it: in vivo.
The target in series [11] is T4, Glucagon-like peptide 1 receptor (Mus musculus) (UniProt O35659).
T4 sequence (whole entry): T3 sequence (O35659 whole entry)
Briefly: Antagonist activity at mouse GLP1R expressed in CHO-K1 cells assessed as inhibition of GLP1-induced cAMP production relative to control. The note with it: concentration not given here. Type of series: functional, cell-based.

The target of series [12] is T5, Gastric inhibitory polypeptide receptor (Homo sapiens, UniProt P48546).
T5 sequence (P48546 whole entry): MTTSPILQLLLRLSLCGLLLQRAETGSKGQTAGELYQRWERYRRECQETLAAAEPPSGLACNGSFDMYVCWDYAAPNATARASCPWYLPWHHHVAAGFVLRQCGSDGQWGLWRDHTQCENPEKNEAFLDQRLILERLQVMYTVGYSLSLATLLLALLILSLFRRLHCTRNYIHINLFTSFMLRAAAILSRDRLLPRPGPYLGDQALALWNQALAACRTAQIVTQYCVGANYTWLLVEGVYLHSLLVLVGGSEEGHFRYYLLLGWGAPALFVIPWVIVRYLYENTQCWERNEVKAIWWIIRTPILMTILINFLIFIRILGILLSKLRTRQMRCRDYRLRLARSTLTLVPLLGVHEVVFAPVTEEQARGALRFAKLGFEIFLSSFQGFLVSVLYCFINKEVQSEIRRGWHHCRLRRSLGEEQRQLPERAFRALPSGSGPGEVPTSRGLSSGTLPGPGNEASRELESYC
Briefly: Antagonist activity at human GIPR expressed in HEK293 cells assessed as inhibition of GIP-induced cAMP production. Type of series: functional, cell-based.

Series [13] has as its target T6, Gastric inhibitory polypeptide receptor (Mus musculus) (UniProt Q0P543).
T6 sequence (whole entry): T1 sequence (Q0P543 whole entry)
Briefly: Antagonist activity at mouse GIPR expressed in CHO-K1 cells assessed as inhibition of GIP-induced cAMP production relative to control. Type of series: cell-based. The note with it: concentration not given here.

Series [14] addresses T7, Gastric inhibitory polypeptide receptor (Homo sapiens) (UniProt P48546).
T7 sequence (whole entry): T5 sequence (P48546 whole entry)
Briefly: Antagonist activity at human GIPR expressed in HEK293 cells assessed as inhibition of GIP-induced cAMP production relative to control. Type of series: functional, cell-based. The note with it: concentration not given here.

A short description of series [15]: Aqueous solubility of the compound at pH 8 by LC-MS analysis. The note with it: buffer. Type of series: physicochemical.
Series [16] deals with Glucagon-like peptide 1 receptor (Homo sapiens, UniProt P43220). The series can be described thus: Antagonist activity at human GLP-1R expressed in HEK293 cells assessed as inhibition of GLP1-induced cAMP production. Type of series: functional, cell-based.
A short description of series [17]: Chemical stability of compound in PBS buffer incubated for 5 to 7 days by LC-MS analysis. Type of series: physicochemical. The settings on record: time 5-7 day.

Structures are written as SMILES. Active and inactive are the calls of the source. The calls are words filed in the database; no cut-off is given here.

T2 sequence (P47871 whole entry): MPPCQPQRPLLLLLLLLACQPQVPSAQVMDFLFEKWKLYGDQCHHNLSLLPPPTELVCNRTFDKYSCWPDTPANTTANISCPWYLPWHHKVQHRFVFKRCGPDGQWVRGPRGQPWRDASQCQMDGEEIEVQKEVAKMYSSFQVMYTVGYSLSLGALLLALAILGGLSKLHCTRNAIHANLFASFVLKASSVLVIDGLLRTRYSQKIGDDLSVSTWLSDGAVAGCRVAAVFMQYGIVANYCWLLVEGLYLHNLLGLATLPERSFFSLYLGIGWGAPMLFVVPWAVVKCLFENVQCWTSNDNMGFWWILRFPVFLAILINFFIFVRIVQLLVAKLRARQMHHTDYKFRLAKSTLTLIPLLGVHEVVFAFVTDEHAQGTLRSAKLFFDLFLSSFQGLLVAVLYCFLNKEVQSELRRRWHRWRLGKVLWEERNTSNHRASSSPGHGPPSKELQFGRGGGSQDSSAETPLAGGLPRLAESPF
Chain of Glucagon-like peptide 1 receptor (Homo sapiens, UniProt P43220) (P43220 whole entry): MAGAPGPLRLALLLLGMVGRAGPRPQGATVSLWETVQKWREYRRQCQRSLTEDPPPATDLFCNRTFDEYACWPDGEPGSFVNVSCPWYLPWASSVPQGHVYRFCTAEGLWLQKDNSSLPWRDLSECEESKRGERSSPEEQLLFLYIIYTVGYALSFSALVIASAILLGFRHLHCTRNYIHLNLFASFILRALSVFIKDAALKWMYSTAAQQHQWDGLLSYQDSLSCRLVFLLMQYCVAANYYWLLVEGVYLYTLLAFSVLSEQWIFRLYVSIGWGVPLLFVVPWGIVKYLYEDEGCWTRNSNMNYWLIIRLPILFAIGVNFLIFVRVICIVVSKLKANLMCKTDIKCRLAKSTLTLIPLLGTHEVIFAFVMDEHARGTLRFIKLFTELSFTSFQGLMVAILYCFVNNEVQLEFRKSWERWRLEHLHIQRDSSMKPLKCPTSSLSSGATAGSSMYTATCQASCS
Chain of Glucagon receptor (Mus musculus, UniProt Q61606) (Q61606 whole entry): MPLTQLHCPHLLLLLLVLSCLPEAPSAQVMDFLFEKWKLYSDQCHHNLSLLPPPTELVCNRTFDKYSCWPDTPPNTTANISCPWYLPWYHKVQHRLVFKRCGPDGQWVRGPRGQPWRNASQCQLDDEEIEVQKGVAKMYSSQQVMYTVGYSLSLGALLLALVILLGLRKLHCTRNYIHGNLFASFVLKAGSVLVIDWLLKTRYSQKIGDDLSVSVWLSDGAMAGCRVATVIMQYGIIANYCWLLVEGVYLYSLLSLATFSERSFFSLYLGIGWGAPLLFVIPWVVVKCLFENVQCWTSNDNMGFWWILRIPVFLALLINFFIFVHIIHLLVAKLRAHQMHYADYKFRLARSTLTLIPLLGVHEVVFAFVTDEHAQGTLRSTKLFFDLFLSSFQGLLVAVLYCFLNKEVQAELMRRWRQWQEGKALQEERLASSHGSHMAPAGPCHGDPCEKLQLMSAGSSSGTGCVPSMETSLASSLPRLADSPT
Chain of Glucagon receptor (Mus musculus) (Q61606 whole entry): as above

Regarding `CSCC[C@H](NC(=O)[C@H](CC(C)C)NC(=O)[C@H](Cc1c[nH]c2ccccc12)NC(=O)[C@H](CCC(N)=O)NC(=O)[C@@H](NC(=O)[C@H](Cc1ccccc1)NC(=O)[C@H](CC(=O)O)NC(=O)[C@H](CCC(N)=O)NC(=O)[C@H](C)NC(=O)[C@H](CCCNC(=N)N)NC(=O)[C@H](CCCNC(=N)N)NC(=O)[C@H](CO)NC(=O)[C@H](CC(=O)O)NC(=O)[C@H](CC(C)C)NC(=O)[C@H](Cc1ccc(O)cc1)NC(=O)[C@H](CCCCN)NC(=O)[C@H](CO)NC(=O)[C@H](Cc1ccc(O)cc1)NC(=O)[C@H](CC(=O)O)NC(=O)[C@H](CO)NC(=O)[C@@H](NC(=O)[C@@H](O)Cc1ccccc1)[C@@H](C)O)C(C)C)C(=O)N[C@@H](CC(=O)O)C(=O)N[C@H](C(N)=O)[C@@H](C)O`, the IC50 was above 1000 nM in series [1]; 23.1 nM at Glucagon receptor [3]; 12.1 nM on Glucagon receptor [7]; above 1000 nM in series [9]; above 1000 nM in series [12]; above 1000 nM in [16]. The Activity entry in series [2] is “Non-Toxic”. Also, the inhibition at Glucagon receptor [4] amounted to 99%; in [8], 92%; in [11] it was 1%; in series [13] it was 10%; in [14] it was 20%. The AUC at 4 h in series [5] was 0.209 µM·h. Besides, the highest concentration (Cmax) in series [6] is 261 nM. The inhibition result in the series on Mus musculus was “Active”. The same compound had a half-life in series [10] of 30.7 min. In series [15], this compound showed a solubility above 500 µM. For the same compound, the Stabilty result in series [17] was “Stable”.

These data come from ChEMBL document CHEMBL4808176, “Optimization of Truncated Glucagon Peptides to Achieve Selective, High Potency, Full Antagonists” (J Med Chem, 2021).
